# Literature values as cited in PubChem BioAssay AID1259409 (Chemical Carcinogenesis Research Information System (CCRIS), 2018).
# Test system: rodent chemically induced tumor inhibition, incidence and multiplicity
# Assay: CCRIS tumor inhibitor studies
structure (smiles),measurement,setting,value
O,"tumour outcome (control, treated, inhibition, significance)","Carcinogen: 1,2-DIMETHYLHYDRAZINE, 540-73-8, Dose [Inhibitor]: 0, 250 PPM IN DIET BEGINNING POST CARCINOGEN TREATMENT AND CONTINUING FOR DURATION OF STUDY (STUDY DURATION: 365 D), Route [Inhibitor]: ORAL, Species: RAT, Strain/Sex: F344/MALE, Target Tissue: Type of Lesion: LARGE INTESTINE: ADENOMA OR ADENOCARCINOMA, Dose [Carcinogen]: 20 MG/KG BW 10 TIMES, Promoter: NONE USED","14/30 (47%), 11/32 (34%), 28%, not significant"
same,"tumour outcome (control, treated, inhibition, significance)","Carcinogen: 1,2-DIMETHYLHYDRAZINE, 540-73-8, Dose [Inhibitor]: 0, 250 PPM IN DIET BEGINNING POST CARCINOGEN TREATMENT AND CONTINUING FOR DURATION OF STUDY (STUDY DURATION: 365 D), Route [Inhibitor]: ORAL, Species: RAT, Strain/Sex: F344/MALE, Target Tissue: Type of Lesion: SMALL INTESTINE: ADENOCARCINOMA, Dose [Carcinogen]: 20 MG/KG BW 10 TIMES, Promoter: NONE USED","6/30 (20%), 5/32 (16%), 20%, not significant"
same,"tumour outcome (control, treated, inhibition, significance)","Carcinogen: 1,2-DIMETHYLHYDRAZINE, 540-73-8, Dose [Inhibitor]: 0, 500 PPM IN DIET BEGINNING POST CARCINOGEN TREATMENT AND CONTINUING FOR DURATION OF STUDY (STUDY DURATION: 365 D), Route [Inhibitor]: ORAL, Species: RAT, Strain/Sex: F344/MALE, Target Tissue: Type of Lesion: LARGE INTESTINE: ADENOMA OR ADENOCARCINOMA, Dose [Carcinogen]: 20 MG/KG BW 10 TIMES, Promoter: NONE USED","14/30 (47%), 16/32 (50%), -6%, not significant"
same,"tumour outcome (control, treated, inhibition, significance)","Carcinogen: 1,2-DIMETHYLHYDRAZINE, 540-73-8, Dose [Inhibitor]: 0, 500 PPM IN DIET BEGINNING POST CARCINOGEN TREATMENT AND CONTINUING FOR DURATION OF STUDY (STUDY DURATION: 365 D), Route [Inhibitor]: ORAL, Species: RAT, Strain/Sex: F344/MALE, Target Tissue: Type of Lesion: SMALL INTESTINE: ADENOMA, Dose [Carcinogen]: 20 MG/KG BW 10 TIMES, Promoter: NONE USED","6/30 (20%), 3/32 (9%), 55%, not significant"
same,"tumour outcome (control, treated, inhibition, significance)","Carcinogen: 1,2-DIMETHYLHYDRAZINE, 540-73-8, Dose [Inhibitor]: 0, 1000 PPM IN DIET BEGINNING POST CARCINOGEN TREATMENT AND CONTINUING FOR DURATION OF STUDY (STUDY DURATION: 365 D), Route [Inhibitor]: ORAL, Species: RAT, Strain/Sex: F344/MALE, Target Tissue: Type of Lesion: LARGE INTESTINE: ADENOMA OR ADENOCARCINOMA, Dose [Carcinogen]: 20 MG/KG BW 10 TIMES, Promoter: NONE USED","14/30 (47%), 11/32 (34%), 28%, not significant"
same,"tumour outcome (control, treated, inhibition, significance)","Carcinogen: 1,2-DIMETHYLHYDRAZINE, 540-73-8, Dose [Inhibitor]: 0, 1000 PPM IN DIET BEGINNING POST CARCINOGEN TREATMENT AND CONTINUING FOR DURATION OF STUDY (STUDY DURATION: 365 D), Route [Inhibitor]: ORAL, Species: RAT, Strain/Sex: F344/MALE, Target Tissue: Type of Lesion: SMALL INTESTINE: ADENOCARCINOMA, Dose [Carcinogen]: 20 MG/KG BW 10 TIMES, Promoter: NONE USED","6/30 (20%), 6/32 (19%), 5%, not significant"
same,"tumour outcome (control, treated, inhibition, significance)","Carcinogen: 1,2-DIMETHYLHYDRAZINE, 540-73-8, Dose [Inhibitor]: 0, 2000 PPM IN DIET BEGINNING POST CARCINOGEN TREATMENT AND CONTINUING FOR DURATION OF STUDY (STUDY DURATION: 365 D), Route [Inhibitor]: ORAL, Species: RAT, Strain/Sex: F344/MALE, Target Tissue: Type of Lesion: LARGE INTESTINE: ADENOCARCINOMA, Dose [Carcinogen]: 20 MG/KG BW 10 TIMES, Promoter: NONE USED","11/30 (37%), 11/31 (35%), 5%, not significant"
same,"tumour outcome (control, treated, inhibition, significance)","Carcinogen: 1,2-DIMETHYLHYDRAZINE, 540-73-8, Dose [Inhibitor]: 0, 2000 PPM IN DIET BEGINNING POST CARCINOGEN TREATMENT AND CONTINUING FOR DURATION OF STUDY (STUDY DURATION: 365 D), Route [Inhibitor]: ORAL, Species: RAT, Strain/Sex: F344/MALE, Target Tissue: Type of Lesion: SMALL INTESTINE: ADENOCARCINOMA, Dose [Carcinogen]: 20 MG/KG BW 10 TIMES, Promoter: NONE USED","6/30 (20%), 10/31 (32%), -60%, not significant"
same,"tumour outcome (control, treated, inhibition, significance)","Carcinogen: METHYLAZOXYMETHANOL ACETATE, 592-62-1, Dose [Inhibitor]: 0, 500 PPM IN DIET BEGINNING 2 WK POST CARCINOGEN TREATMENT AND CONTINUING FOR DURATION OF STUDY (STUDY DURATION: 255 D), Route [Inhibitor]: ORAL, Species: RAT, Strain/Sex: F344/MALE, Target Tissue: Type of Lesion: LARGE INTESTINE: ADENOMA OR ADENOCARCINOMA, Dose [Carcinogen]: 25 MG/KG BW 1/WK FOR 3 WK, Promoter: NONE USED","17/32 (53%), 3/30 (10%), 81%, p<0.0002"
same,"tumour outcome (control, treated, inhibition, significance)","Carcinogen: METHYLAZOXYMETHANOL ACETATE, 592-62-1, Dose [Inhibitor]: 0, 500 PPM IN DIET BEGINNING 2 WK POST CARCINOGEN TREATMENT AND CONTINUING FOR DURATION OF STUDY (STUDY DURATION: 255 D), Route [Inhibitor]: ORAL, Species: RAT, Strain/Sex: F344/MALE, Target Tissue: Type of Lesion: SMALL INTESTINE: ADENOCARCINOMA, Dose [Carcinogen]: 25 MG/KG BW 1/WK FOR 3 WK, Promoter: NONE USED","2/32 (6%), 2/30 (7%), -17%, not significant"
same,"tumour outcome (control, treated, inhibition, significance)","Carcinogen: METHYLAZOXYMETHANOL ACETATE, 592-62-1, Dose [Inhibitor]: 0, 1000 PPM IN DIET BEGINNING 2 WK POST CARCINOGEN TREATMENT AND CONTINUING FOR DURATION OF STUDY (STUDY DURATION: 255 D, Route [Inhibitor]: ORAL, Species: RAT, Strain/Sex: F344/MALE, Target Tissue: Type of Lesion: LARGE INTESTINE: ADENOMA OR ADENOCARCINOMA, Dose [Carcinogen]: 25 MG/KG BW 1/WK FOR 3 WK, Promoter: NONE USED","17/32 (53%), 9/30 (30%), 43%, not significant"
same,"tumour outcome (control, treated, inhibition, significance)","Carcinogen: METHYLAZOXYMETHANOL ACETATE, 592-62-1, Dose [Inhibitor]: 0, 1000 PPM IN DIET BEGINNING 2 WK POST CARCINOGEN TREATMENT AND CONTINUING FOR DURATION OF STUDY (STUDY DURATION: 255 D, Route [Inhibitor]: ORAL, Species: RAT, Strain/Sex: F344/MALE, Target Tissue: Type of Lesion: SMALL INTESTINE: ADENOCARCINOMA, Dose [Carcinogen]: 25 MG/KG BW 1/WK FOR 3 WK, Promoter: NONE USED","2/32 (6%), 2/30 (7%), -17%, not significant"
same,"tumour outcome (control, treated, inhibition, significance)","Carcinogen: METHYLAZOXYMETHANOL ACETATE, 592-62-1, Dose [Inhibitor]: 500 PPM IN DIET BEGINNING 2 WK POST LAST CARCINOGEN DOSE AND CONTINUING FOR 227 D (STUDY DURATION: 255 D), Route [Inhibitor]: ORAL, Species: RAT, Strain/Sex: F344/MALE, Target Tissue: Type of Lesion: LARGE INTESTINE: ADENOMA OR ADENOCARCINOMA, Dose [Carcinogen]: 25 MG/KG 1/WK FOR 3 WK, Promoter: NONE USED","17/32 (53%), 3/30 (10%), 81%, p<0.0002"
same,"tumour outcome (control, treated, inhibition, significance)","Carcinogen: METHYLAZOXYMETHANOL ACETATE, 592-62-1, Dose [Inhibitor]: 1000 PPM IN DIET BEGINNING 2 WK POST LAST CARCINOGEN DOSE AND CONTINUING FOR 227 D (STUDY DURATION: 255 D), Route [Inhibitor]: ORAL, Species: RAT, Strain/Sex: F344/MALE, Target Tissue: Type of Lesion: LARGE INTESTINE: ADENOMA OR ADENOCARCINOMA, Dose [Carcinogen]: 25 MG/KG 1/WK FOR 3 WK, Promoter: NONE USED","17/32 (53%), 9/30 (30%), 43%, not calculated"
[Cl][Zn][Cl],"tumour outcome (control, treated, inhibition, significance)","Carcinogen: CISPLATIN, 15663-27-1, Dose [Inhibitor]: 0, 40 UMOL/KG/D 3 D/WK FOR 8 WK ADMINISTERED 24 HR PRIOR TO EACH CARCINOGEN DOSE (STUDY DURATION: 24 WK), Route [Inhibitor]: SUBCUTANEOUS, Species: MOUSE, Strain/Sex: STRAIN-A/FEMALE, Target Tissue: Type of Lesion: LUNG: TUMOR, Dose [Carcinogen]: 2 UMOL/KG/D 3 D/WK FOR 8 WK, Promoter: NONE USED","100%, 69%, 31%, p<0.05"
same,"tumour outcome (control, treated, inhibition, significance)","Carcinogen: MELPHALAN, 148-82-3, Dose [Inhibitor]: 0, 40 UMOL/KG/D 3 D/WK FOR 8 WK ADMINISTERED 24 HR PRIOR TO EACH CARCINOGEN DOSE (STUDY DURATION: 24 WK), Route [Inhibitor]: SUBCUTANEOUS, Species: MOUSE, Strain/Sex: STRAIN-A/FEMALE, Target Tissue: Type of Lesion: LUNG: TUMOR, Dose [Carcinogen]: 4 UMOL/KG/D 3 D/WK FOR 8 WK, Promoter: NONE USED","100%, 100%, 0%, not significant"
CC[C@@H](C)[C@@H](N)C(=O)OC,"tumour outcome (control, treated, inhibition, significance)","Carcinogen: 7,12-DIMETHYLBENZ[A]ANTHRACENE, 57-97-6, Dose [Inhibitor]: 0, 1 MG IN 0.2 ML ACETONE APPLIED 30 MIN AFTER EACH MEZEREIN DOSE (STUDY DURATION: 20 WK), Route [Inhibitor]: DERMAL, Species: MOUSE, Strain/Sex: SENCAR/FEMALE, Target Tissue: Type of Lesion: SKIN: PAPILLOMA, Dose [Carcinogen]: 0.1 UMOL IN 0.2 ML ACETONE ONCE, Promoter: TPA, 16561-29-8, MEZEREIN, 37807-41-5, Promoter: TPA, 16561-29-8, MEZEREIN, 37807-41-5","100%, 76%, 24%, p<0.005"
same,"tumour outcome (control, treated, inhibition, significance)","Carcinogen: 7,12-DIMETHYLBENZ[A]ANTHRACENE, 57-97-6, Dose [Inhibitor]: 0, 1 MG IN 0.2 ML ACETONE APPLIED 30 MIN AFTER EACH TPA DOSE (STUDY DURATION: 20 WK), Route [Inhibitor]: DERMAL, Species: MOUSE, Strain/Sex: SENCAR/FEMALE, Target Tissue: Type of Lesion: SKIN: PAPILLOMA, Dose [Carcinogen]: 0.1 UMOL IN 0.2 ML ACETONE ONCE, Promoter: TPA, 16561-29-8, MEZEREIN, 37807-41-5, Promoter: TPA, 16561-29-8, MEZEREIN, 37807-41-5","100%, 83%, 17%, p<0.005"
